For 16 molecules, GI50 and TGI results are on record in PubChem BioAssay (NCI).

Among the test systems are A498 renal; COLO 205 colon; EKVX NSCLC; OVCAR-5 ovarian; OVCAR-8 ovarian; RXF 393 renal; SK-OV-3 ovarian; UACC-62 melanoma; SF-539 CNS; MALME-3M melanoma.
Holding throughout (experiment): NCI anticancer screen, dose series, 48 h

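Dose response: 5 concentrations. Exposure: 48 h. Format: 96-well plates. Endpoint: linear interpolation; highest concentration if not reached. At the GI50, growth is halved. TGI: total growth inhibition.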 Where a SMILES comes first, the peptide text is derived from it. [ ]: non-standard residue; d: D form. The star is where a group is joined. dTle = CC(C)(C)[C@@H](N)C(=O)O; 4Abz = Nc1ccc(C(=O)O)cc1; NHOH = ON*

Regarding `CCOC(=O)C1=C(C)N(Cc2ccc(Cl)cc2Cl)C2(O)C=CC(=O)C3=C(O)c4ccccc4C(=O)C312` (stereo unspecified), the GI50 in the experiment on A498 renal is 23.7 µM; in the experiment with COLO 205 colon it was 4.41 µM; in the experiment on EKVX NSCLC, 10.6 µM; with OVCAR-5 ovarian, 9.59 µM; with OVCAR-8 ovarian, 7.17 µM; with RXF 393 renal, 11.1 µM. The GI50 in the experiment with SK-OV-3 ovarian is 17.4 µM; in the experiment with UACC-62 melanoma, 4.72 µM. The TGI with A498 renal is 59.4 µM; in the experiment with COLO 205 colon, 20.6 µM; with EKVX NSCLC, 47.8 µM; in the experiment with OVCAR-5 ovarian, 30.1 µM; in the experiment with OVCAR-8 ovarian, 91.2 µM; with RXF 393 renal, 66.5 µM. In addition, the TGI in the experiment with SK-OV-3 ovarian worked out at 91.7 µM; in the experiment with UACC-62 melanoma it was 18.9 µM.

`O=C(Nc1cccc(Cl)c1)c1cccc(NC2=C(Cl)C(=O)N(Cc3ccccc3)C2=O)c1`: the GI50 is above 100 µM in the experiment with A498 renal; above 100 µM in the experiment on COLO 205 colon; above 100 µM in the experiment with EKVX NSCLC; above 100 µM with OVCAR-5 ovarian; 56.4 µM with OVCAR-8 ovarian; 85 µM in the experiment with RXF 393 renal. In addition, the GI50 in the experiment on SF-539 CNS was 81.8 µM; in the experiment with SK-OV-3 ovarian it was above 100 µM; in the experiment with UACC-62 melanoma, 21.1 µM. The TGI with A498 renal, in the experiment with COLO 205 colon, in the experiment with EKVX NSCLC, in the experiment on OVCAR-5 ovarian, with OVCAR-8 ovarian and with RXF 393 renal was above 100 µM throughout. Besides, the TGI in the experiment with SF-539 CNS, with SK-OV-3 ovarian and in the experiment on UACC-62 melanoma was above 100 µM each time.

Regarding `CCOC(=O)c1cnc2c(ccc3ncccc32)c1NCCCN(CC)CC`, the TGI with A498 renal, in the experiment on COLO 205 colon, in the experiment with EKVX NSCLC, in the experiment on MALME-3M melanoma, in the experiment with OVCAR-5 ovarian and in the experiment on SK-OV-3 ovarian was above 100 µM each time. This molecule registered a TGI in the experiment with UACC-62 melanoma above 100 µM.

Consider `CC(C(N)C(=O)NC(C(=O)O)C1OC(n2ccc(=O)[nH]c2=O)C(O)C1O)C(O)c1ccc(O)cn1` (stereo unspecified), for which the TGI in the experiment on COLO 205 colon, with EKVX NSCLC, in the experiment on OVCAR-5 ovarian, with OVCAR-8 ovarian, in the experiment on SF-539 CNS and with UACC-62 melanoma was above 100 µM throughout.

On to `NS(=O)(=O)c1ccc(N(/C=C/C(=O)C(F)(F)F)Cc2ccc(Cl)cc2)cc1`, for which the GI50 in the experiment with A498 renal is 17.4 µM; with COLO 205 colon, 37.3 µM; in the experiment on EKVX NSCLC it was 22.5 µM; in the experiment on OVCAR-5 ovarian, 28.7 µM; in the experiment with OVCAR-8 ovarian, 24.3 µM; with RXF 393 renal it was 16 µM. The GI50 is 17.4 µM with SF-539 CNS, 36 µM in the experiment with SK-OV-3 ovarian and 20.3 µM in the experiment on UACC-62 melanoma. In addition, the TGI in the experiment on A498 renal is 41.2 µM; in the experiment with COLO 205 colon, above 100 µM; in the experiment with EKVX NSCLC it was 49.6 µM; in the experiment with OVCAR-5 ovarian it was above 100 µM; in the experiment with OVCAR-8 ovarian, 63.1 µM; in the experiment on RXF 393 renal it was 47 µM. For the same molecule, the results for the TGI with SF-539 CNS, with SK-OV-3 ovarian and in the experiment with UACC-62 melanoma were 34 µM, above 100 µM and 45.3 µM, respectively.

Regarding `NS(=O)(=O)NCCNc1nonc1C(=Nc1ccc(F)c(Br)c1)NO`, the GI50 in the experiment on COLO 205 colon is 47.6 µM; with EKVX NSCLC, 34.8 µM; in the experiment on MALME-3M melanoma, 28.5 µM; in the experiment on OVCAR-5 ovarian it was 69.4 µM; in the experiment with OVCAR-8 ovarian, 56.5 µM; with SF-539 CNS it was 37.5 µM. Moreover, the results for the GI50 in the experiment on SK-OV-3 ovarian and in the experiment on UACC-62 melanoma were 67.4 µM and 25.9 µM, respectively. Besides, the TGI in the experiment on COLO 205 colon, with EKVX NSCLC, with MALME-3M melanoma, in the experiment with OVCAR-5 ovarian, in the experiment on OVCAR-8 ovarian and with SF-539 CNS was above 100 µM in each case. For the same molecule, the TGI in the experiment on SK-OV-3 ovarian and with UACC-62 melanoma was above 100 µM in each case.

As to `C[C@@H](NC(=O)[C@H](NC(=O)[C@@H]1CCCN1C(=O)CNC(=O)c1ccc(N)cc1)C(C)(C)C)C(=O)NO` (H-[4Abz]GP[dTle][dA]-{NHOH}), the GI50 in the experiment on A498 renal, in the experiment on COLO 205 colon, in the experiment on EKVX NSCLC, in the experiment with MALME-3M melanoma, with OVCAR-5 ovarian and in the experiment with OVCAR-8 ovarian was above 100 µM throughout. Besides, the GI50 in the experiment with SF-539 CNS, in the experiment on SK-OV-3 ovarian and in the experiment with UACC-62 melanoma was above 100 µM each time. For the same molecule, the TGI in the experiment on A498 renal, in the experiment on COLO 205 colon, in the experiment with EKVX NSCLC, in the experiment with MALME-3M melanoma, with OVCAR-5 ovarian and in the experiment on OVCAR-8 ovarian was above 100 µM throughout. The TGI with SF-539 CNS, in the experiment on SK-OV-3 ovarian and in the experiment with UACC-62 melanoma was above 100 µM in each case.

Turning to `CC(=O)O[C@@]1(C)[C@@H](C)C(=O)O[C@@H]2CCN3CC=C(COC(=O)[C@]1(C)O)[C@H]23`, the TGI in the experiment with COLO 205 colon, with MALME-3M melanoma, in the experiment with OVCAR-5 ovarian, in the experiment with OVCAR-8 ovarian, with SF-539 CNS and with UACC-62 melanoma was above 100 µM each time.

`COc1ccc2c3c(c(C(=O)c4ccccc4)oc13)CCC2`: the TGI with A498 renal was above 100 µM; in the experiment on COLO 205 colon, above 100 µM; in the experiment on EKVX NSCLC it was above 100 µM; in the experiment on OVCAR-8 ovarian, above 100 µM; in the experiment on RXF 393 renal, 31.3 µM; in the experiment on SF-539 CNS, above 100 µM. The TGI with SK-OV-3 ovarian and with UACC-62 melanoma was above 100 µM throughout.

Consider `CN(C)CCNc1c2ccccc2nc2oc3ccccc3c12`, for which the GI50 is 3.28 µM in the experiment on A498 renal; 2.43 µM in the experiment on COLO 205 colon; 6.49 µM in the experiment on EKVX NSCLC; 3.73 µM in the experiment on MALME-3M melanoma; 20.6 µM in the experiment with OVCAR-5 ovarian; 6.66 µM with OVCAR-8 ovarian. Besides, the GI50 with SF-539 CNS is 4.03 µM; in the experiment on SK-OV-3 ovarian, 7.11 µM; in the experiment on UACC-62 melanoma, 10.1 µM. Besides, the TGI in the experiment with A498 renal was 13.8 µM; in the experiment on COLO 205 colon, 10.3 µM; in the experiment with EKVX NSCLC, 32.2 µM; with MALME-3M melanoma it was 17.6 µM; with OVCAR-5 ovarian it was 49.7 µM; with OVCAR-8 ovarian it was above 100 µM. Moreover, the TGI in the experiment with SF-539 CNS is 15.3 µM; in the experiment on SK-OV-3 ovarian, 28.5 µM; in the experiment with UACC-62 melanoma, 23.5 µM.

Take `CC(=O)c1c(CO[N+](=O)[O-])n([O-])c2ccccc2[n+]1=O`: the TGI with COLO 205 colon, with EKVX NSCLC, with MALME-3M melanoma, in the experiment on OVCAR-5 ovarian, in the experiment with OVCAR-8 ovarian and with SF-539 CNS was above 100 µM in each case. The TGI in the experiment on SK-OV-3 ovarian and with UACC-62 melanoma was above 100 µM throughout.

For the molecule `O=C1c2ccccc2-c2c1c1c(O)cccc1n2Cc1ccccn1`, the GI50 in the experiment on COLO 205 colon was 61 µM; in the experiment with EKVX NSCLC, 17.6 µM; in the experiment on OVCAR-5 ovarian, 58.5 µM; with OVCAR-8 ovarian it was 74 µM; with RXF 393 renal, 45.7 µM; with SF-539 CNS, 17 µM. For the same molecule, the GI50 was 89 µM in the experiment with SK-OV-3 ovarian and 20.5 µM with UACC-62 melanoma. Moreover, the TGI in the experiment with COLO 205 colon was above 100 µM; with EKVX NSCLC it was 70 µM; in the experiment on OVCAR-5 ovarian, above 100 µM; in the experiment with OVCAR-8 ovarian, above 100 µM; in the experiment on RXF 393 renal, above 100 µM; with SF-539 CNS, 44.1 µM. For the same molecule, the TGI in the experiment with SK-OV-3 ovarian and with UACC-62 melanoma was above 100 µM each time.

With `CC1(N)CCN(c2cnc(-c3cccc(Cl)c3Cl)c(N)n2)CC1`, the GI50 in the experiment on A498 renal is 2.49 µM; with COLO 205 colon, 16.9 µM; in the experiment with EKVX NSCLC, 2.58 µM; in the experiment on MALME-3M melanoma, 16.4 µM; with OVCAR-5 ovarian it was 27.7 µM; with OVCAR-8 ovarian, 28.2 µM. In addition, the GI50 with SF-539 CNS is 12.9 µM; with SK-OV-3 ovarian, 3.02 µM; in the experiment with UACC-62 melanoma, 19.1 µM. For the same molecule, the TGI in the experiment on A498 renal is 12 µM; with COLO 205 colon it was 35.5 µM; in the experiment on EKVX NSCLC, above 100 µM; in the experiment with MALME-3M melanoma, 32.1 µM; with OVCAR-5 ovarian, above 100 µM; in the experiment on OVCAR-8 ovarian, above 100 µM. Besides, the values for the TGI in the experiment on SF-539 CNS, in the experiment on SK-OV-3 ovarian and in the experiment with UACC-62 melanoma were 31.5 µM, 60.5 µM and 39.9 µM, respectively.

`N#Cc1cc(S(=O)(=O)Nc2nnc(-c3ccccc3)c(-c3ccccc3)n2)c(SCc2ccccc2)cc1Cl`: the GI50 in the experiment on A498 renal was 23.5 µM; with COLO 205 colon, 40.8 µM; with EKVX NSCLC, 22.8 µM; with OVCAR-8 ovarian it was 28.5 µM; in the experiment on RXF 393 renal, 6.31 µM; with SF-539 CNS it was 30.2 µM. Further, the GI50 is 23.4 µM with SK-OV-3 ovarian and 20.5 µM in the experiment on UACC-62 melanoma. Moreover, the TGI in the experiment on A498 renal is 45.2 µM; in the experiment on COLO 205 colon, above 100 µM; in the experiment with EKVX NSCLC, 48.7 µM; in the experiment on OVCAR-8 ovarian, 56.7 µM; with RXF 393 renal, 22.7 µM; in the experiment with SF-539 CNS, 62.4 µM. Also, the TGI with SK-OV-3 ovarian came to 57.4 µM; with UACC-62 melanoma, 48.7 µM.

As for `O=C(CC(=O)c1cccc2ccccc12)C(=O)NC1C2CC3CC(C2)CC1C3` (stereo unspecified), the TGI with A498 renal, in the experiment on COLO 205 colon, in the experiment with EKVX NSCLC, in the experiment with MALME-3M melanoma, in the experiment with OVCAR-5 ovarian and in the experiment on OVCAR-8 ovarian was above 100 µM each time. Further, the TGI in the experiment with SF-539 CNS, in the experiment with SK-OV-3 ovarian and with UACC-62 melanoma was above 100 µM throughout.

Turning to `O=NNc1ccc(Sc2ccc(NN=O)cn2)nc1`, the TGI in the experiment on A498 renal, in the experiment on COLO 205 colon, in the experiment on EKVX NSCLC, with OVCAR-5 ovarian, in the experiment with OVCAR-8 ovarian and in the experiment on SF-539 CNS was above 100 µM each time. In addition, the TGI in the experiment on SK-OV-3 ovarian and in the experiment on UACC-62 melanoma was above 100 µM each time.
